Key:
Test in all cases: Protein kinase selectivity panel
Type in all cases: biochemical
Details in all cases: 1.0 μM compound, 10 μM ATP
Aurora-A(h) = target: T1, Aurora-A(h) (Homo sapiens, UniProt O14965)
T1 sequence (O14965 1-403): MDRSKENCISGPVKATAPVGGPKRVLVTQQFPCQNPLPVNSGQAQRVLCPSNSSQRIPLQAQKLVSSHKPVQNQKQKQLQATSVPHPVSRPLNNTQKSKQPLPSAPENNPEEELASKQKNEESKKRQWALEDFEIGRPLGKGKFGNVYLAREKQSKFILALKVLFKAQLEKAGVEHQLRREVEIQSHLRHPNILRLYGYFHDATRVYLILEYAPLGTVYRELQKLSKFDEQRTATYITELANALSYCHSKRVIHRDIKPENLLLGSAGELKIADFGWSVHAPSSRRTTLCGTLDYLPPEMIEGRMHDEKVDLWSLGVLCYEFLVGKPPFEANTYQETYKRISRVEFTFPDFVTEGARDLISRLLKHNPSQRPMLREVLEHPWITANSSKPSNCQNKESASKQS
Method: (§1) Protein kinase selectivity assays were performed as described in the scientific literature (Davies, S. P., et al., Biochem. J. 2000, 351, 95-105). Briefly, protein kinases were assayed for their ability to phosphorylate the appropriate peptide/protein substrates in the presence of 1.0 μM compound. Assays were done using 10 μM ATP and were linear with respect to time. The protein kinase selectivity assays were performed by Upstate Cell Signaling Solutions using Upstate's KinaseProfiler™ Selectivity Screening Service.

CDK2/cyclinA(h) = CDK2/cyclinA(h) (Homo sapiens, UniProt P24941)
Method: as §1

Rsk2(h) = Rsk2(h) (Homo sapiens, UniProt P51812)
Method: as §1

CDK3/cyclinE(h) = CDK3/cyclinE(h) (Homo sapiens, UniProt Q00526)
Sequence of CDK3/cyclinE(h) (Q00526 whole entry): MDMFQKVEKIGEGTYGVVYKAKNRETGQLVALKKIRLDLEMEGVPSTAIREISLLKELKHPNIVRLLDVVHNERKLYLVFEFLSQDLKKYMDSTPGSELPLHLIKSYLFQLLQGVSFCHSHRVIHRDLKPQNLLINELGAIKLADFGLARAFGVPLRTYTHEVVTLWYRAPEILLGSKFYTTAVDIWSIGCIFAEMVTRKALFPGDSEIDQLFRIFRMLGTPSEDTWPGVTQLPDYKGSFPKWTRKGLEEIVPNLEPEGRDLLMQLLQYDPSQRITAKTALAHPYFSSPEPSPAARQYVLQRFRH
Sequence of CDK3/cyclinE(h) (P24864 whole entry partner): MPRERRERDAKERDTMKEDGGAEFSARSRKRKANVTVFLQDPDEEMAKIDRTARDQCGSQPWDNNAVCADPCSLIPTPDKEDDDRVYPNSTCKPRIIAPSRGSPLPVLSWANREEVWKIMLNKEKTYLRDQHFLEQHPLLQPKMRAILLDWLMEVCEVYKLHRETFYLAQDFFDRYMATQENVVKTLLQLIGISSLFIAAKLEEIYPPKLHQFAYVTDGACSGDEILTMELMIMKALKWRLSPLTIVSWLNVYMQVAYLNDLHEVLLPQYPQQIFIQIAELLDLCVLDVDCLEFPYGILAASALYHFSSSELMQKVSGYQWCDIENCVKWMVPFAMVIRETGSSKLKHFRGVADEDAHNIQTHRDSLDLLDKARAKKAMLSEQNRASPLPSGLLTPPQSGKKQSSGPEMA
Method: as §1

BTK(h) = BTK(h) (Homo sapiens, UniProt Q06187)
Sequence of BTK(h) (Q06187 whole entry): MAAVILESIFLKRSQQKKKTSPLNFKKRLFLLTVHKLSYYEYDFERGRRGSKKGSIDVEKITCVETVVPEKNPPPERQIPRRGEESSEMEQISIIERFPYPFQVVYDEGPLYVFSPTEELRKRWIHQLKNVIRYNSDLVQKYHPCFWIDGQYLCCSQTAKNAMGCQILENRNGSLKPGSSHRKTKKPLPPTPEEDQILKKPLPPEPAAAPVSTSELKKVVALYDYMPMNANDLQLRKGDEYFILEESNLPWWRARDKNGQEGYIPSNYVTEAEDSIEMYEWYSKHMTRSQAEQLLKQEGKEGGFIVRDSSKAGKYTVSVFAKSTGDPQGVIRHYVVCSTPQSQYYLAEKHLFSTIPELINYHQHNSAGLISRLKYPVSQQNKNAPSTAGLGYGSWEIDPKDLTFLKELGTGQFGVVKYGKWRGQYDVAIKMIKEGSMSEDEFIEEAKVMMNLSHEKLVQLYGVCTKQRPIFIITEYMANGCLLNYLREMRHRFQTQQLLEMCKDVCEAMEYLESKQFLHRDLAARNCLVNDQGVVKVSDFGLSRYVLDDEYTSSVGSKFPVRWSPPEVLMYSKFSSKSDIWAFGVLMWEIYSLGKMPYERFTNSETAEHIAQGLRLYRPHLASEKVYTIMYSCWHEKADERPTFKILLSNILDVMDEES
Method: as §1

MAPKAP-K2(h) = MAPKAP-K2(h) (Homo sapiens, UniProt P49137)
Sequence of MAPKAP-K2(h) (P49137 whole entry): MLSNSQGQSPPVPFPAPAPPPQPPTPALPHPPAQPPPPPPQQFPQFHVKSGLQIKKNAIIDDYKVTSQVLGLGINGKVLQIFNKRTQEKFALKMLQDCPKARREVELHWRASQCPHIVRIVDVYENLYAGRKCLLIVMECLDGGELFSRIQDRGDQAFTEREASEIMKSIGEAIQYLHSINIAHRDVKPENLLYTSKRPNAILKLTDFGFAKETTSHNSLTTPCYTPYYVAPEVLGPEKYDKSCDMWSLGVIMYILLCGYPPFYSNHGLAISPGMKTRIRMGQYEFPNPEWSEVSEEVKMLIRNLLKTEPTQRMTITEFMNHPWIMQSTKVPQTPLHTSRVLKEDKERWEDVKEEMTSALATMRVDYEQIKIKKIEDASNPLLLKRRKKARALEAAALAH
Method: as §1

Arg(m) = Arg(m) (Mus musculus, UniProt Q4JIM5)
Method: as §1

CaMKIV(h) = target: T2, CaMKIV(h) (Homo sapiens, UniProt Q16566)
T2 sequence (Q16566 1-473): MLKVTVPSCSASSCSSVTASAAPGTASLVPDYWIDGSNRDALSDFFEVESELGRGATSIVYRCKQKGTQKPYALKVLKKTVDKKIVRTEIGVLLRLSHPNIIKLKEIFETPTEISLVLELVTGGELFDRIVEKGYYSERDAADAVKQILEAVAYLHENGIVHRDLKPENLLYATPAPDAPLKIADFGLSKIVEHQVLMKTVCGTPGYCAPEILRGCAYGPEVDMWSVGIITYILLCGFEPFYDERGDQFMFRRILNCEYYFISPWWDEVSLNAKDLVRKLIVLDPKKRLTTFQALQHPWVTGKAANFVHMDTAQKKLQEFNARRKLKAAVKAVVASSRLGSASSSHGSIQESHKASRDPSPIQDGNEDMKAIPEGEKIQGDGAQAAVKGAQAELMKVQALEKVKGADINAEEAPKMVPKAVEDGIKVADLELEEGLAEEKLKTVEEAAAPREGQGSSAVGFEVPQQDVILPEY
Method: as §1

Blk(m) = Blk(m) (Mus musculus, UniProt P16277)
Sequence of Blk(m) (P16277 whole entry): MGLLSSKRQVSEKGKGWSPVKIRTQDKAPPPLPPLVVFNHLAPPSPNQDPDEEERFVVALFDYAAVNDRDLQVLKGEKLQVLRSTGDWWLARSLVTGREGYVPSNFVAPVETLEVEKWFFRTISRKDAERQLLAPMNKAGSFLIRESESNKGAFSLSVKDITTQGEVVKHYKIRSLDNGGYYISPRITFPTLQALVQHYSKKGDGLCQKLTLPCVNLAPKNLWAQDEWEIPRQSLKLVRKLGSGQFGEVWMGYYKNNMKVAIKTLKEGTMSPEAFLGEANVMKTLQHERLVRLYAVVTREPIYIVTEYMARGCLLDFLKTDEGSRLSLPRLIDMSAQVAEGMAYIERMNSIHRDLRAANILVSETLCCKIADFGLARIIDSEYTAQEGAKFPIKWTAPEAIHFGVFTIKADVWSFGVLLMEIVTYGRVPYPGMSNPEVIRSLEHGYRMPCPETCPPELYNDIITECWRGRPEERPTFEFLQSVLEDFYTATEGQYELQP
Method: as §1

IR(h) = IR(h) (Homo sapiens, UniProt P06213)
Sequence of IR(h) (P06213 28-1382): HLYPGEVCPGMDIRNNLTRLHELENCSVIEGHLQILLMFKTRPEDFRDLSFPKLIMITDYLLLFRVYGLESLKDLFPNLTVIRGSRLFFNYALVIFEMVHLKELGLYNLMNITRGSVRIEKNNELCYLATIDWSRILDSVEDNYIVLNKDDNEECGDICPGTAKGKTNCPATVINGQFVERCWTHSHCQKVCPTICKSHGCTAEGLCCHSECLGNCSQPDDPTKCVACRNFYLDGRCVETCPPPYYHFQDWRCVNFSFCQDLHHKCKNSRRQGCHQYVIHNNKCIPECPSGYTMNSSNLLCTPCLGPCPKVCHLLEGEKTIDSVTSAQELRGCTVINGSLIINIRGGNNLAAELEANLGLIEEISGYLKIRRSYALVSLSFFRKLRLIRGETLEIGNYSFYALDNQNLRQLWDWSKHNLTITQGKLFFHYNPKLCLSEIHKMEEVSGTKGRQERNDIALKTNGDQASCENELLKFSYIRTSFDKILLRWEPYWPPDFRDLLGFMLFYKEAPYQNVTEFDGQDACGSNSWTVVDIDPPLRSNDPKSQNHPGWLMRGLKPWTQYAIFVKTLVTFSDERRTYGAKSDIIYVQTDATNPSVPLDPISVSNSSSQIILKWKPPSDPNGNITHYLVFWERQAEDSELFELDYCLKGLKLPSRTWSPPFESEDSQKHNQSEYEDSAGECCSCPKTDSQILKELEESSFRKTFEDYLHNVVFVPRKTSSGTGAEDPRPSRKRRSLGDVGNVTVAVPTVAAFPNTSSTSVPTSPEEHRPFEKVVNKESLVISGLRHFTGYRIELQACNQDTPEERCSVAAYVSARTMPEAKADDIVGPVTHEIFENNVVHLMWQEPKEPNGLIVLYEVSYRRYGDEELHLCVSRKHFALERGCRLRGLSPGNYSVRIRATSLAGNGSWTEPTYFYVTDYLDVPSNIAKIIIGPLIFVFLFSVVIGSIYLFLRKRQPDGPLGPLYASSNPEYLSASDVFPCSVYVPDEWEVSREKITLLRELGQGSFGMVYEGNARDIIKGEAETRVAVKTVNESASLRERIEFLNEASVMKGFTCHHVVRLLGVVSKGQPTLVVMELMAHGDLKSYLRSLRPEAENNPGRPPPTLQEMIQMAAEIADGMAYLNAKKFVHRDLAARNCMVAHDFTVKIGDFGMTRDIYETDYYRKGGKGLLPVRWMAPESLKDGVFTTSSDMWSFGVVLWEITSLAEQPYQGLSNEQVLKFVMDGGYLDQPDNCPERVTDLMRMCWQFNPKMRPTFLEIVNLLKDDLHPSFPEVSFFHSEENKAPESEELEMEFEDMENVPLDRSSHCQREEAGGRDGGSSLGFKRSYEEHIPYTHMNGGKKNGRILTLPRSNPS
Method: as §1

PKBβ(h) = PKBβ(h) (Homo sapiens, UniProt P31751)
Sequence of PKBβ(h) (P31751 whole entry): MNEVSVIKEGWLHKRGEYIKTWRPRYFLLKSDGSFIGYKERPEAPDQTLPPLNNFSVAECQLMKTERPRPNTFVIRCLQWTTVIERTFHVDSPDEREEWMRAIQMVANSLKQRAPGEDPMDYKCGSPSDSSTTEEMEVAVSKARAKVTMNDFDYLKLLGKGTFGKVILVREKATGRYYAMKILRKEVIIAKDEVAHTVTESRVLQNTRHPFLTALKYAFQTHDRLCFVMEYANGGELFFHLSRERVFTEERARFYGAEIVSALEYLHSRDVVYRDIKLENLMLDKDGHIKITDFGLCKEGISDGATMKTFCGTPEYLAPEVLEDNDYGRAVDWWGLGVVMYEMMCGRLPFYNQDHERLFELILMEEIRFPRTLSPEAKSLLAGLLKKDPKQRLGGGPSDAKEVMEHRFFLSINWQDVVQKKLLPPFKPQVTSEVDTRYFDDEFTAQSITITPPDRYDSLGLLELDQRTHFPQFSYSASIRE
Method: as §1

SAPK2a(h) = SAPK2a(h) (Homo sapiens, UniProt Q16539)
Sequence of SAPK2a(h) (Q16539 whole entry): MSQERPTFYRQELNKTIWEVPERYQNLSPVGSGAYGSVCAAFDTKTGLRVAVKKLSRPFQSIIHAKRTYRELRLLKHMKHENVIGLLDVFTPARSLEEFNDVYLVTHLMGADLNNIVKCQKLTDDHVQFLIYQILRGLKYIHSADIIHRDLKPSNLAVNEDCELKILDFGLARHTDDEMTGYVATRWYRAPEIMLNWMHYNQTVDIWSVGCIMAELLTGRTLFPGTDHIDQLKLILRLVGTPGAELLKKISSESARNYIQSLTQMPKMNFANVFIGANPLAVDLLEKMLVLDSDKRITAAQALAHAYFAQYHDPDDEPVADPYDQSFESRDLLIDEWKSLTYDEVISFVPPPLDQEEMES
Method: as §1

PRAK(h) = target: T3, PRAK(h) (Homo sapiens, UniProt Q8IW41)
T3 sequence (Q8IW41 1-473): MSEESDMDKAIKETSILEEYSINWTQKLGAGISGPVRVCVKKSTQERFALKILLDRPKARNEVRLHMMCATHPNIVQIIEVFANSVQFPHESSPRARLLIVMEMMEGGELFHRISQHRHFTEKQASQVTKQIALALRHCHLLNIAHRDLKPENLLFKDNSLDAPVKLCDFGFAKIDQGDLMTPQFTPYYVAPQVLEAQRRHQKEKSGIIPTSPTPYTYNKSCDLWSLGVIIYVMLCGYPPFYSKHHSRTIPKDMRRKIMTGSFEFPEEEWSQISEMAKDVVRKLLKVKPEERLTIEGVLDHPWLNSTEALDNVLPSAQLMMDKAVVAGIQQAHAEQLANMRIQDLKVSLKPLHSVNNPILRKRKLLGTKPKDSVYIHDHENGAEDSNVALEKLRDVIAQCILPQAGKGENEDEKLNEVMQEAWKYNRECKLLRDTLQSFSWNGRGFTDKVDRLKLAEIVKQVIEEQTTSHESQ
Method: as §1

PAK2(h) = PAK2(h) (Homo sapiens, UniProt Q13177)
Sequence of PAK2(h) (Q13177 whole entry): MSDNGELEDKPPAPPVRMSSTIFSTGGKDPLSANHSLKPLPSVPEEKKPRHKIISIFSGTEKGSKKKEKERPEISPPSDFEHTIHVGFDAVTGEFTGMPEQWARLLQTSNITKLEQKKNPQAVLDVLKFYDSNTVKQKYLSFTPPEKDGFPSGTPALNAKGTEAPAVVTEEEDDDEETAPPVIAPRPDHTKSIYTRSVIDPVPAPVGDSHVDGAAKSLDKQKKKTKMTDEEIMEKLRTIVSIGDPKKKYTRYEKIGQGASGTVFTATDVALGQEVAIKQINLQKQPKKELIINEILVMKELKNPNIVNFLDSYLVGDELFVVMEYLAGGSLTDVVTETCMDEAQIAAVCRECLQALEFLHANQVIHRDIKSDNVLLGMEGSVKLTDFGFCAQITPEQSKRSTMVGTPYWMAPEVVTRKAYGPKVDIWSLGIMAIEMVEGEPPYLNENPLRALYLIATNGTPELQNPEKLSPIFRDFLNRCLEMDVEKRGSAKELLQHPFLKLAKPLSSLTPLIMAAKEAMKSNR
Method: as §1

| Activity at Protein Kinase Assays (% of control), Aurora-A(h) (Aurora-A(h)) | Activity at Protein Kinase Assays (% of control), CDK2/cyclinA(h) (CDK2/cyclinA(h)) | Activity at Protein Kinase Assays (% of control), Rsk2(h) (Rsk2(h)) | Activity at Protein Kinase Assays (% of control), CDK3/cyclinE(h) (CDK3/cyclinE(h)) | Activity at Protein Kinase Assays (% of control), BTK(h) (BTK(h)) | Activity at Protein Kinase Assays (% of control), MAPKAP-K2(h) (MAPKAP-K2(h)) | Activity at Protein Kinase Assays (% of control), Arg(m) (Arg(m)) | Activity at Protein Kinase Assays (% of control), CaMKIV(h) (CaMKIV(h)) | Activity at Protein Kinase Assays (% of control), Blk(m) (Blk(m)) | Activity at Protein Kinase Assays (% of control), IR(h) (IR(h)) | Activity at Protein Kinase Assays (% of control), PKBβ(h) (PKBβ(h)) | Activity at Protein Kinase Assays (% of control), SAPK2a(h) (SAPK2a(h)) | Activity at Protein Kinase Assays (% of control), PRAK(h) (PRAK(h)) | Activity at Protein Kinase Assays (% of control), PAK2(h) (PAK2(h)) | Compound |
| --- | --- | --- | --- | --- | --- | --- | --- | --- | --- | --- | --- | --- | --- | --- |
| 111 % of control | 88 % of control | 12 % of control | 86 % of control | 106 % of control | 108 % of control | 121 % of control | 112 % of control | 74 % of control | 110 % of control | 104 % of control | 92 % of control | 101 % of control | 100 % of control | O=C1NC(=O)C2=C1c1cn(c3ccccc13)CCCc1cc(nc(N3CCCC3)c1)CCCn1cc2c2ccccc21 [Cpd 6, 20-pyrrolidin-1-yl-4,14,19,26-tetraazaheptacyclo[24.6.1.1^7,14.1^18,22.0^2,6.0^8,13.0^27,32]pentatriaconta-1(33),2(6),7(35),8,10,12,18(34),19,21,27,29,31-dodecaene-3,5-dione] |
| 106 % of control | 88 % of control | 63 % of control | 106 % of control | 104 % of control | 95 % of control | 130 % of control | 99 % of control | 91 % of control | 87 % of control | 102 % of control | 93 % of control | 102 % of control | 102 % of control | O=C1NC(=O)C2=C1c1cn(c3ccccc13)CCCc1ccc(c(N3CCCC3)n1)CCCn1cc2c2ccccc21 [Cpd 7, 31-pyrrolidin-1-yl-5,15,25,30-tetraazaheptacyclo[27.2.2.1^5,12.1^18,25.0^6,11.0^13,17.0^19,24]pentatriaconta-1(31),6,8,10,12(35),13(17),18(34),19,21,23,29,32-dodecaene-14,16-dione] |
| 111 % of control | 80 % of control | 10 % of control | 89 % of control | 106 % of control | 101 % of control | 129 % of control | 113 % of control | 70 % of control | 102 % of control | 118 % of control | 92 % of control | 96 % of control | 103 % of control | CN(C)c1cc2cc(n1)CCCn1cc(c3ccccc31)C1=C(C(=O)NC1=O)c1cn(c3ccccc13)CCC2 [Cpd 2, 20-(dimethylamino)-4,14,19,26-tetraazaheptacyclo[24.6.1.1^7,14.1^18,22.0^2,6.0^8,13.0^27,32]pentatriaconta-1(33),2(6),7(35),8,10,12,18(34),19,21,27,29,31-dodecaene-3,5-dione] |
| 109 % of control | 120 % of control | 32 % of control | 59 % of control | 105 % of control | 98 % of control | 113 % of control | 92 % of control | 109 % of control | 91 % of control | 86 % of control | 108 % of control | 88 % of control | 93 % of control | CN(C)c1nc2ccc1CCCCn1cc(c3ccccc31)C1=C(C(=O)NC1=O)c1cn(c3ccccc13)CCC2 [Cpd 1, 31-(dimethylamino)-5,15,25,32-tetraazaheptacyclo[28.2.2.1^5,12.1^18,25.0^6,11.0^13,17.0^19,24]hexatriaconta-1(32),6,8,10,12(36),13(17),18(35),19,21,23,30,33-dodecaene-14,16-dione] |
